Assay results from PubChem BioAssay (NCI).
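Here, GI50 denotes the concentration required for 50% inhibition of growth. TGI denotes the concentration required for complete inhibition of growth.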

Key:
Assay in all cases: growth of human tumour cells (NCI), 384-well format
[1] = system: A498 renal
[2] = system: SN12C renal
[3] = system: HOP-62 NSCLC
[4] = system: HL-60(TB) leukemia
[5] = system: OVCAR-5 ovarian
[6] = system: SK-MEL-28 melanoma
[7] = system: NCI-H522 lung
[8] = system: NCI-H460 NSCLC
[9] = system: MDA-MB-435 melanoma
[10] = system: M14 melanoma
[11] = system: 786-0 renal
[12] = system: MCF7 breast
[13] = system: HCT-15 colon
[14] = system: COLO 205 colon
[15] = system: UACC-62 melanoma
[16] = system: A549 NSCLC
[17] = system: RXF 393 renal
[18] = system: SW-620 colon
[19] = system: SNB-75 CNS
[20] = system: IGROV1 ovarian
[21] = system: OVCAR-3 ovarian
[22] = system: UACC-257 melanoma
[23] = system: HS 578T breast
[24] = system: CAKI-1 renal
[25] = system: MDA-MB-468 breast
[26] = system: SNB-19 CNS
[27] = system: NCI-H23 lung

For `C=CC(=O)N1CCCC(n2nc(-c3ccc(Oc4ccccc4)cc3)c3c(N)ncnc32)C1` (centres undefined), the GI50 [1] was 11.5 µM, the TGI [1] was 23.7 µM and the GI50 [2] was 2.71 µM. It also gave a TGI [2] of 16.5 µM, a GI50 [3] of 15.2 µM and a TGI [3] of 28.6 µM. For the same molecule, the GI50 [4] was 15.9 µM, the TGI [4] was 29.4 µM and the GI50 [5] was 18.7 µM. For the same molecule, the TGI [5] was 32.8 µM, the GI50 [6] was 17.3 µM and the TGI [6] was 31.2 µM. The GI50 [7] was 0.0178 µM, the TGI [7] was 0.0859 µM and the GI50 [8] was 16.5 µM. It also gave a TGI [8] of 30.1 µM, a GI50 [9] of 17.2 µM and a TGI [9] of 31.1 µM. It also gave a GI50 [10] of 11.1 µM, a TGI [10] of 23.2 µM and a GI50 [11] of 3.78 µM. It also gave a TGI [11] of 17.4 µM, a GI50 [12] of 10.3 µM and a TGI [12] of 22.1 µM. The GI50 [13] was 12.6 µM, the TGI [13] was 25.3 µM and the GI50 [14] was 18.9 µM. It also gave a TGI [14] of 33 µM, a GI50 [15] of 5.71 µM and a TGI [15] of 18.7 µM. The GI50 [16] was 12.1 µM, the TGI [16] was 24.5 µM and the GI50 [17] was 1.18 µM. It also gave a TGI [17] of 6.31 µM, a GI50 [18] of 18.4 µM and a TGI [18] of 32.5 µM. It also gave a GI50 [19] of 5.51 µM, a TGI [19] of 14 µM and a GI50 [20] of 0.114 µM. It also gave a TGI [20] of 5.9 µM, a GI50 [21] of 2.05 µM and a TGI [21] of 15.5 µM. For the same molecule, the GI50 [22] was 10.6 µM, the TGI [22] was 22.5 µM and the GI50 [23] was 6.88 µM. For the same molecule, the TGI [23] was 19.5 µM, the GI50 [24] was 6.76 µM and the TGI [24] was 19.6 µM. The GI50 [25] was 0.0226 µM, the TGI [25] was 0.239 µM and the GI50 [26] was 15 µM. The TGI [26] was 28.4 µM, the GI50 [27] was 16.3 µM and the TGI [27] was 29.9 µM.
